Results from patent US10457707B2, “Substituted urea depsipeptide analogs as activators of the CLPP endopeptidase” (priority 2015, dated 2019).
Where two headings read alike, the source gives them in different places. *1 amine or outer side, *2 acyl side, *3 side chain or, on linkers, in order; H or OH if unused. Where a SMILES comes first, the peptide text is derived from it. Bridges are numbered along the chain shown (N, C = ends). [ ]: non-standard residue; d: D form. The star is where a group is joined. ξ: configuration not given here. NH(1,3-benzodioxol-5-yl) = c1cc2c(cc1N*)OCO2; Phe(3,5-F2) = N[C@@H](Cc1cc(F)cc(F)c1)C(=O)O; NH(1-Me-indolin-5-yl) = CN1CCc2cc(N*)ccc21; Morpholine(3S-CO) = O=C(O)[C@@H]1COCCN1; NH(4-Cl-2-F-phenyl) = Fc1cc(Cl)ccc1N*; Pro(4R-Me) = C[C@H]1CN[C@H](C(=O)O)C1; Hyp = O=C(O)[C@@H]1C[C@@H](O)CN1; NH(4-Et-phenyl) = CCc1ccc(N*)cc1; NH(4-Me-phenyl) = Cc1ccc(N*)cc1; ξNMeThr = CNC(C(=O)O)[C@@H](C)O; aThr = C[C@H](O)[C@H](N)C(=O)O; Pip = O=C(O)[C@@H]1CCCCN1; X4 = c1cc2c(cc1N*)CCC2; CO = O=C([*:1])[*:2]

Target: T1, Sa-ClpP (Staphylococcus aureus, UniProt Q2G036)
T1 construct: made in house; host or cells: E. coli BL21(DE3)
T1 sequence (Q2G036 1-195): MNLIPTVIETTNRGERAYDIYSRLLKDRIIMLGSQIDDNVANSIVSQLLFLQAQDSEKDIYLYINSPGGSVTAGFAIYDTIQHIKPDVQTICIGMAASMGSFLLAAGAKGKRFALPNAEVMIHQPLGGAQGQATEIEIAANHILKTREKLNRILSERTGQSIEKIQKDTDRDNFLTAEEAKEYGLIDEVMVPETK
Assay: Sa-ClpP casein-BODIPY ClpP activation assay, method variant not marked in Table 5
Format: biochemical, S. aureus
Description: The compounds were assayed in a casein digestion assay in order to determine their effect on ClpP activation. Briefly, the assay was carried out using S. aureus ClpP (“Sa-ClpP”) overexpressed in E. coli BL21(DE3) and purified in a two-step process. Purity of the protein was assessed through SDS PAGE analysis. EC50 evaluations were conducted in triplicate in a 20 μl assay format using a method adapted from Maurizi et al. (Methods Enzymol. (1994) 244:314-331). Each well contained 10 μM saClpP, 25 μg/ml BODIPY FL casein (Invitrogen Corporation, San Diego, Calif.), and test compound in concentrations ranging between 0-1000 μM in assay buffer (50 mM Tris pH 8, 200 mM KCl, and 1 mM TCEP). The reaction took place at 37° C. Fluorescence (excitation 485 nm; emission 528 nm) was measured in five minute intervals over a 45 min period using a BioTek HT fluorescence microplate reader (BioTek Instruments, Inc., Winooski, Vt.). Velocity of each reaction was calculated and data was fit to a dose response curve using GraphPad Prism® software (GraphPad Software, Inc., La Jolla, Calif.). EC50 is the effective concentration of compound which causes 50% activation of S. aureus ClpP in the foregoing BODIPY FL casein assay.
Alternatively, the assay was carried out using EnzCheck Protease Assay (Molecular Probes, Catalog # E6638). The assay was performed in black 384 well, flat bottom, low volume plates (Greiner Bio-One, Monroe, N.C., catalog #784076). 10 μL of Tris*HCl buffer, pH 8.0 with 0.01% Triton X-100 was pipetted into each well using a Well-Mate (Thermo Scientific, Waltham, Mass.). 0.4 μL test compounds or controls (2% DMSO v/v) were added to each well using a Biomek FX liquid handling robot (Beckman Coulter, Indianapolis Ind.). After addition of test compounds and controls, 10 μL of master mix containing 2 μM Sa-ClpP and 2 μM substrate (Bodipy-FL labeled casein) in Tris*HCl buffer, pH 8.0 with 0.01% (v/v) Triton X-100, was pipetted into each well. All assays were performed in triplicate, under linear velocity conditions. Increase in fluorescent signal following activation of Sa-ClpP by test compounds and controls was measured over time period of 30 mins using filters with excitation at 485±15 nm and emission at 520±25 nm on a PHERAstar FS Multilabel reader (BMG, Cary, N.C.). […] Data analysis was done by measuring rate of casein degradation over time (slopes). Computed degradation rates (slopes) were normalized to positive (ADEP4) or negative (DMSO) controls. Using nonlinear regression curve fitting EC50 values and % activation were determined using the equation “log [agonist] vs. Response-variable slope (four parameters)-symmetrical” in the program Prism 6 (GraphPad Software, La Jolla, Calif. USA, www.graphpad.com).
Substituted urea depsipetide analogs were synthesized as described above. The EC50 for ClpP activation was determined in the Sa-ClpP in casein-BODIPY assay as described above. The IC50 for ADEP displacement was determined in the ADEP displacement fluorescent polarization assay as described above; and the IC50 for growth inhibition was determined in the Vero cell cytotoxicity assay as described above. The compound number corresponds to the compound numbers used in Tables 1-4 and the experimental examples described above.

[1] = values without ** or † mark, assay variant not stated, read-out: ClpP Activation EC50

SMILES	EC50 [1]	EC50
C[C@@H]1C[C@H]2C(=O)O[C@@H](C)[C@H](NC(=O)[C@H](Cc3cc(F)cc(F)c3)NC(=O)Nc3ccc4c(c3)CCN4C)C(=O)N3CCC[C@H]3C(=O)N3CCCC[C@H]3C(=O)N[C@@H](C)C(=O)N2C1 [Compound 310, (S)-3-(3,5-difluorophenyl)-2-(3-(1-methylindolin-5-yl)ureido)-N-((2R,6S,8aS,14aS,20S,21S,23aS)-2,6,21-trimethyl-5,8,14,19,23-pentaoxooctadecahydro-1H,5H,14H,19H-pyrido[2,1-i]dipyrrolo[2,1-c:2′,1′-l][1]oxa[4,7,10,13]tetraazacyclo-hexadecin-20-yl)propanamide] ({NH(1-Me-indolin-5-yl)-CO}-[Phe(3,5-F2)][aThr]P[Pip]A[Pro(4R-Me)]; ester 2-C)	440 ± 30 nM	
Cc1ccc(NC(=O)N[C@@H](Cc2cc(F)cc(F)c2)C(=O)N[C@H]2COC(=O)[C@@H]3C[C@@H](C)CN3C(=O)[C@H](C)NC(=O)C([C@@H](C)O)N(C)C(=O)[C@@H]3CCCN3C2=O)cc1 (stereo partly drawn) [Compound 322, (S)-3-(3,5-difluorophenyl)-N-((2R,6S,9R,11aS,17S,20aS)-9-((R)-1-hydroxyethyl)-2,6,10-trimethyl-5,8,11,16,20-pentaoxohexadecahydro-1H,5H,16H-dipyrrolo[2,1-c:2′,1′-l][1]oxa[4,7,10,13]tetraazacyclohexadecin-17-yl)-2-(3-(p-tolyl)ureido)propanamide] ({NH(4-Me-phenyl)-CO}-[Phe(3,5-F2)]SP[ξNMeThr]A[Pro(4R-Me)]; ester 2-C)	560 ± 30 nM	
C[C@@H]1C[C@H]2C(=O)O[C@@H](C)[C@H](NC(=O)[C@H](Cc3cc(F)cc(F)c3)NC(=O)Nc3ccc(Cl)cc3F)C(=O)N3C[C@H](O)C[C@H]3C(=O)N3CCOC[C@H]3C(=O)N[C@@H](C)C(=O)N2C1 [Compound 316, (S)-2-(3-(4-chloro-2-fluorophenyl)ureido)-3-(3,5-difluorophenyl)-N-((6aS,8R,12S,13S,15aS,17R,21S,23aS)-8-hydroxy-13,17,21-trimethyl-6,11,15,20,23-pentaoxooctadecahydro-6H,11H,15H-[1,4]oxazino[3,4-i]dipyrrolo[2,1-c:2′,1′-l][1]oxa[4,7,10,13]tetraazacyclo-hexadecin-12-yl)propanamide] ({NH(4-Cl-2-F-phenyl)-CO}-[Phe(3,5-F2)][aThr][Hyp][Morpholine(3S-CO)]A[Pro(4R-Me)]; ester 2-C)		450 ± 20 nM
CCc1ccc(NC(=O)N[C@@H](Cc2cc(F)cc(F)c2)C(=O)N[C@@H]2C(=O)N3C[C@H](O)C[C@H]3C(=O)N3CCOC[C@H]3C(=O)N[C@@H](C)C(=O)N3C[C@H](C)C[C@H]3C(=O)O[C@H]2C)cc1 [Compound 320, (S)-3-(3,5-difluorophenyl)-2-(3-(4-ethylphenyl)ureido)-N-((6aS,8R,12S,13S,15aS,17R,21S,23aS)-8-hydroxy-13,17,21-trimethyl-6,11,15,20,23-pentaoxooctadecahydro-6H,11H,15H-[1,4]oxazino[3,4-i]dipyrrolo[2,1-c:2′,1′-l][1]oxa[4,7,10,13]-tetraazacyclohexadecin-12-yl)propanamide] ({NH(4-Et-phenyl)-CO}-[Phe(3,5-F2)][aThr][Hyp][Morpholine(3S-CO)]A[Pro(4R-Me)]; ester 2-C)		330 ± 100 nM
C[C@@H]1C[C@H]2C(=O)O[C@@H](C)[C@H](NC(=O)[C@H](Cc3cc(F)cc(F)c3)NC(=O)Nc3ccc4c(c3)CCN4C)C(=O)N3CCC[C@H]3C(=O)N3CCOC[C@H]3C(=O)N[C@@H](C)C(=O)N2C1 [Compound 312, (S)-3-(3,5-difluorophenyl)-2-(3-(1-methylindolin-5-yl)ureido)-N-((6aS,12S,13S,15aS,17R,21S,23aS)-13,17,21-trimethyl-6,11,15,20,23-pentaoxooctadecahydro-6H,11H,15H-[1,4]oxazino[3,4-i]dipyrrolo[2,1-c:2′,1′-l][1]oxa[4,7,10,13]tetraazacyclo-hexadecin-12-yl)propanamide] ({NH(1-Me-indolin-5-yl)-CO}-[Phe(3,5-F2)][aThr]P[Morpholine(3S-CO)]A[Pro(4R-Me)]; ester 2-C)	440 ± 20 nM	
CCc1ccc(NC(=O)N[C@@H](Cc2cc(F)cc(F)c2)C(=O)N[C@@H]2C(=O)N3C[C@H](O)C[C@H]3C(=O)N3CCCC[C@H]3C(=O)N[C@@H](C)C(=O)N3C[C@H](C)C[C@H]3C(=O)O[C@H]2C)cc1 [Compound 211, (S)-3-(3,5-difluorophenyl)-2-(3-(4-ethylphenyl)ureido)-N-((2R,6S,8aS,14aS,16R,20S,21S,23aS)-16-hydroxy-2,6,21-trimethyl-5,8,14,19,23-pentaoxooctadecahydro-1H,5H,14H,19H-pyrido[2,1-i]dipyrrolo[2,1-c:2′,1′-l][1]oxa[4,7,10,13]tetraazacyclohexadecin-20-yl)propanamide] ({NH(4-Et-phenyl)-CO}-[Phe(3,5-F2)][aThr][Hyp][Pip]A[Pro(4R-Me)]; ester 2-C)		500 ± 10 nM
C[C@@H]1C[C@H]2C(=O)O[C@@H](C)[C@H](NC(=O)[C@H](Cc3cc(F)cc(F)c3)NC(=O)Nc3ccc4c(c3)CCN4C)C(=O)N3C[C@H](O)C[C@H]3C(=O)N3CCOC[C@H]3C(=O)N[C@@H](C)C(=O)N2C1 [Compound 315, (S)-3-(3,5-difluorophenyl)-N-((6aS,8R,12S,13S,15aS,17R,21S,23aS)-8-hydroxy-13,17,21-trimethyl-6,11,15,20,23-pentaoxooctadecahydro-6H,11H,15H-[1,4]oxazino[3,4-i]dipyrrolo[2,1-c:2′,1′-l][1]oxa[4,7,10,13]tetraazacyclohexadecin-12-yl)-2-(3-(1-methylindolin-5-yl)ureido)propanamide] ({NH(1-Me-indolin-5-yl)-CO}-[Phe(3,5-F2)][aThr][Hyp][Morpholine(3S-CO)]A[Pro(4R-Me)]; ester 2-C)	1060 ± 40 nM	
C[C@@H]1C[C@H]2C(=O)O[C@@H](C)[C@H](NC(=O)[C@H](Cc3cc(F)cc(F)c3)NC(=O)Nc3ccc4c(c3)OCO4)C(=O)N3C[C@H](O)C[C@H]3C(=O)N3CCOC[C@H]3C(=O)N[C@@H](C)C(=O)N2C1 [Compound 319, (S)-2-(3-(benzo[d][1,3]dioxol-5-yl)ureido)-3-(3,5-difluorophenyl)-N-((6aS,8R,12S,13S,15aS,17R,21S,23aS)-8-hydroxy-13,17,21-trimethyl-6,11,15,20,23-pentaoxooctadecahydro-6H,11H,15H-[1,4]oxazino[3,4-i]dipyrrolo[2,1-c:2′,1′-l][1]oxa[4,7,10,13]tetraazacyclo-hexadecin-12-yl)propanamide] ({NH(1,3-benzodioxol-5-yl)-CO}-[Phe(3,5-F2)][aThr][Hyp][Morpholine(3S-CO)]A[Pro(4R-Me)]; ester 2-C)		450 ± 40 nM
C[C@@H]1C[C@H]2C(=O)O[C@@H](C)[C@H](NC(=O)[C@H](Cc3cc(F)cc(F)c3)NC(=O)Nc3ccc4c(c3)CCC4)C(=O)N3CCC[C@H]3C(=O)N3CCCC[C@H]3C(=O)N[C@@H](C)C(=O)N2C1 [Compound 302, (S)-3-(3,5-difluorophenyl)-2-(3-(2,3-dihydro-1H-INDEN-5-yl)ureido)-N-((2R,6S,8aS,14aS,20S,21S,23aS)-2,6,21-trimethyl-5,8,14,19,23-pentaoxooctadecahydro-1H,5H,14H,19H-pyrido[2,1-i]dipyrrolo[2,1-c:2′,1′-l][1]oxa[4,7,10,13]tetraazacyclohexadecin-20-yl)propanamide] ({X4-CO}-[Phe(3,5-F2)][aThr]P[Pip]A[Pro(4R-Me)]; ester 2-C)	480 ± 10 nM	
